Experimental data reported in ChEMBL document CHEMBL5465560, “Selectivity Literature for EUbOPEN Chemogenomic Library” (2024).
pIC50: −log10 of the molar value.

Assays:
[1] = target: Glycogen synthase kinase-3 beta (Homo sapiens, UniProt P49841); test: Selectivity interaction (Kinase panel (KiNativ target engagement assay in Jurkat cells)) EUB0001635a GSK3B; type: cell-based; settings: Selectivity number of off-targets 0.0, Selectivity number of targets 233.0, Source Knowledge https://www.sciencedirect.com/science/article/pii/S2451945619300674?via%3Dihub, at 1 µM
Sequence of Glycogen synthase kinase-3 beta (P49841 whole entry, looked up): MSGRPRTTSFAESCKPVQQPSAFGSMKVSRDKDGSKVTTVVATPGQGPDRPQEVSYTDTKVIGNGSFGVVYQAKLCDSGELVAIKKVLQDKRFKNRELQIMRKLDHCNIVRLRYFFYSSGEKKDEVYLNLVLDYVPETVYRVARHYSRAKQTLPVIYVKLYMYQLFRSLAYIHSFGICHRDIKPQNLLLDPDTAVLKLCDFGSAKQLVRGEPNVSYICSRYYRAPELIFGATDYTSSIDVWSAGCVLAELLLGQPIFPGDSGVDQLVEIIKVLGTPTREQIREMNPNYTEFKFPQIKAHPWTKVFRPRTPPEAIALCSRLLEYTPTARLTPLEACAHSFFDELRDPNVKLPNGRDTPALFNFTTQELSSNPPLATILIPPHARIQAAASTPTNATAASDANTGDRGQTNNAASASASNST

[2] = target: Wee1-like protein kinase (Homo sapiens) (UniProt P30291); test: Selectivity interaction (KinomeScan (DiscoverX)) EUB0000695a WEE1; settings: at 100 nM
Sequence of Wee1-like protein kinase (Homo sapiens) (P30291 whole entry, looked up): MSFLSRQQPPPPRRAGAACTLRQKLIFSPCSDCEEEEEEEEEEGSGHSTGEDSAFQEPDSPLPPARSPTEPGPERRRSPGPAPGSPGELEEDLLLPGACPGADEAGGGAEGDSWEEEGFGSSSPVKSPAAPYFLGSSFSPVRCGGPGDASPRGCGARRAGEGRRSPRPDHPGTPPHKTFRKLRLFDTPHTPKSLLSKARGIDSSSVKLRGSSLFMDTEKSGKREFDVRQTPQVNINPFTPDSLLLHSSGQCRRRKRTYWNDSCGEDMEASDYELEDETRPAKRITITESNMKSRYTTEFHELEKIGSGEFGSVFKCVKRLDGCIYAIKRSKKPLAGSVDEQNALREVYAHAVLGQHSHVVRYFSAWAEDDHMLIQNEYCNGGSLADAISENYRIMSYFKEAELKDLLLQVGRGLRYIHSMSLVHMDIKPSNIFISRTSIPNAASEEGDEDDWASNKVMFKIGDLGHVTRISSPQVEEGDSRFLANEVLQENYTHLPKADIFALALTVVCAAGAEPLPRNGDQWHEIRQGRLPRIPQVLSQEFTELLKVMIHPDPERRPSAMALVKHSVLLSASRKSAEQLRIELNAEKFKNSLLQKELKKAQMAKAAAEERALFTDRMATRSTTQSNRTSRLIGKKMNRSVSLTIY

[3] = target: T1, Mitogen-activated protein kinase kinase kinase 5 (Homo sapiens) (UniProt Q99683); test: Selectivity interaction (KinomeScan (DiscoverX)) EUB0001079a MAP3K5; settings: at 1 µM
T1 sequence (whole entry): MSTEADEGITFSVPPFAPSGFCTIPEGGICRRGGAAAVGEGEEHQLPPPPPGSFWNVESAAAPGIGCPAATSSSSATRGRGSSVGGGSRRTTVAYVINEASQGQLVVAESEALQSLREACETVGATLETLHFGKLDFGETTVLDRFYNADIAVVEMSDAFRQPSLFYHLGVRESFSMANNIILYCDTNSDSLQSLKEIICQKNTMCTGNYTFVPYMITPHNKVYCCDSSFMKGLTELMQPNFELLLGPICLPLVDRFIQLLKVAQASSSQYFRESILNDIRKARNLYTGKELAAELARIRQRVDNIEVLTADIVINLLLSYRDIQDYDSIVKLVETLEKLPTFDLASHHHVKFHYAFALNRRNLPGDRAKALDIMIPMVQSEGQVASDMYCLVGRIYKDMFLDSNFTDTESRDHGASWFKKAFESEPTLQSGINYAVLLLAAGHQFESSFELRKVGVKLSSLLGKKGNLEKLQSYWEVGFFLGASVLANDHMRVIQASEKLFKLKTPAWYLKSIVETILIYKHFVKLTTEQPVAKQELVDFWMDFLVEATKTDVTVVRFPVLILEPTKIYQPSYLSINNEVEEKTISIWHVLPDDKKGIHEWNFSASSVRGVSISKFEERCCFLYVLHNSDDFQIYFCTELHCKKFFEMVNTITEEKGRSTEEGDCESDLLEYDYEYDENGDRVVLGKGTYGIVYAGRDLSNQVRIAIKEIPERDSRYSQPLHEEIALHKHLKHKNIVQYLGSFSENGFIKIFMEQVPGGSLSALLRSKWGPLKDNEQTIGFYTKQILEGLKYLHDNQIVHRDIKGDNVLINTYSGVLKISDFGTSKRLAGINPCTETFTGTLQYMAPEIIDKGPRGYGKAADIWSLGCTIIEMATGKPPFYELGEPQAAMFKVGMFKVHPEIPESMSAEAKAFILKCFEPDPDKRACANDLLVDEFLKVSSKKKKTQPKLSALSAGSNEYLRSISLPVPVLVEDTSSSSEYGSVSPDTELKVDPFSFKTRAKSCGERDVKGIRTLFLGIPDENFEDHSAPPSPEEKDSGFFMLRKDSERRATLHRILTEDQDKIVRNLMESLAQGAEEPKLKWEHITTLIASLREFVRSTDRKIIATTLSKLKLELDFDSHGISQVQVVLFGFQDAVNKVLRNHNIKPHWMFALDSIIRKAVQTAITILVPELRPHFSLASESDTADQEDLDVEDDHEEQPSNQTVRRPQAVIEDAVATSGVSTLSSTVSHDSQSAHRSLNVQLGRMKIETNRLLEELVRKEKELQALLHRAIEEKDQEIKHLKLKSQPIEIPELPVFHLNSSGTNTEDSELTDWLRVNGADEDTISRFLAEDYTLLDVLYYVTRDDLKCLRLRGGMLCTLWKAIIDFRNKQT

[4] = target: T2, Eukaryotic elongation factor 2 kinase (Homo sapiens) (UniProt O00418); test: Selectivity interaction (Upstate Kinase Profiler service (Millipore)) EUB0000056c EEF2K; settings: at 1 µM
T2 sequence (whole entry): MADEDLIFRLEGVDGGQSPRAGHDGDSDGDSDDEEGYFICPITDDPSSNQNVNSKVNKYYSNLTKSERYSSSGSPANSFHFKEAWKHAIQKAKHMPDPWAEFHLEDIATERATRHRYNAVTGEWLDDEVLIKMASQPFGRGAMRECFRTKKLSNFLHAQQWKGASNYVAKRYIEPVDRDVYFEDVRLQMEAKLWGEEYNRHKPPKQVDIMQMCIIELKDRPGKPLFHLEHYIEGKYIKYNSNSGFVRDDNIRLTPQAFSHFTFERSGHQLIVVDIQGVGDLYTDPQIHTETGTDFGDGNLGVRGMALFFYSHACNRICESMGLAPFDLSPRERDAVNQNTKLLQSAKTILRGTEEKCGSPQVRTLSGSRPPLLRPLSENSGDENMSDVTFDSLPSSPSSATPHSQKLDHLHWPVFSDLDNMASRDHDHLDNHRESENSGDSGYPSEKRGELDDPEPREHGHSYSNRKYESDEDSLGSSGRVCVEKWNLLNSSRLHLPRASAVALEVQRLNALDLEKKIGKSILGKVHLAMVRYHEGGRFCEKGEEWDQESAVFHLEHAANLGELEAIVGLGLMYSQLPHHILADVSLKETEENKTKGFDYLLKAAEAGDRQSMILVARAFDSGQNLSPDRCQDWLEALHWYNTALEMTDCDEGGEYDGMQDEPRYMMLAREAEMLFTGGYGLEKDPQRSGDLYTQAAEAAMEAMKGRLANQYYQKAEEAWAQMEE

[5] = target: ALK tyrosine kinase receptor (Homo sapiens, UniProt Q9UM73); test: Selectivity interaction (Kinase panel (33PanQinase(R) Activity Assay)) EUB0000877a ALK
Sequence of ALK tyrosine kinase receptor (Q9UM73 whole entry): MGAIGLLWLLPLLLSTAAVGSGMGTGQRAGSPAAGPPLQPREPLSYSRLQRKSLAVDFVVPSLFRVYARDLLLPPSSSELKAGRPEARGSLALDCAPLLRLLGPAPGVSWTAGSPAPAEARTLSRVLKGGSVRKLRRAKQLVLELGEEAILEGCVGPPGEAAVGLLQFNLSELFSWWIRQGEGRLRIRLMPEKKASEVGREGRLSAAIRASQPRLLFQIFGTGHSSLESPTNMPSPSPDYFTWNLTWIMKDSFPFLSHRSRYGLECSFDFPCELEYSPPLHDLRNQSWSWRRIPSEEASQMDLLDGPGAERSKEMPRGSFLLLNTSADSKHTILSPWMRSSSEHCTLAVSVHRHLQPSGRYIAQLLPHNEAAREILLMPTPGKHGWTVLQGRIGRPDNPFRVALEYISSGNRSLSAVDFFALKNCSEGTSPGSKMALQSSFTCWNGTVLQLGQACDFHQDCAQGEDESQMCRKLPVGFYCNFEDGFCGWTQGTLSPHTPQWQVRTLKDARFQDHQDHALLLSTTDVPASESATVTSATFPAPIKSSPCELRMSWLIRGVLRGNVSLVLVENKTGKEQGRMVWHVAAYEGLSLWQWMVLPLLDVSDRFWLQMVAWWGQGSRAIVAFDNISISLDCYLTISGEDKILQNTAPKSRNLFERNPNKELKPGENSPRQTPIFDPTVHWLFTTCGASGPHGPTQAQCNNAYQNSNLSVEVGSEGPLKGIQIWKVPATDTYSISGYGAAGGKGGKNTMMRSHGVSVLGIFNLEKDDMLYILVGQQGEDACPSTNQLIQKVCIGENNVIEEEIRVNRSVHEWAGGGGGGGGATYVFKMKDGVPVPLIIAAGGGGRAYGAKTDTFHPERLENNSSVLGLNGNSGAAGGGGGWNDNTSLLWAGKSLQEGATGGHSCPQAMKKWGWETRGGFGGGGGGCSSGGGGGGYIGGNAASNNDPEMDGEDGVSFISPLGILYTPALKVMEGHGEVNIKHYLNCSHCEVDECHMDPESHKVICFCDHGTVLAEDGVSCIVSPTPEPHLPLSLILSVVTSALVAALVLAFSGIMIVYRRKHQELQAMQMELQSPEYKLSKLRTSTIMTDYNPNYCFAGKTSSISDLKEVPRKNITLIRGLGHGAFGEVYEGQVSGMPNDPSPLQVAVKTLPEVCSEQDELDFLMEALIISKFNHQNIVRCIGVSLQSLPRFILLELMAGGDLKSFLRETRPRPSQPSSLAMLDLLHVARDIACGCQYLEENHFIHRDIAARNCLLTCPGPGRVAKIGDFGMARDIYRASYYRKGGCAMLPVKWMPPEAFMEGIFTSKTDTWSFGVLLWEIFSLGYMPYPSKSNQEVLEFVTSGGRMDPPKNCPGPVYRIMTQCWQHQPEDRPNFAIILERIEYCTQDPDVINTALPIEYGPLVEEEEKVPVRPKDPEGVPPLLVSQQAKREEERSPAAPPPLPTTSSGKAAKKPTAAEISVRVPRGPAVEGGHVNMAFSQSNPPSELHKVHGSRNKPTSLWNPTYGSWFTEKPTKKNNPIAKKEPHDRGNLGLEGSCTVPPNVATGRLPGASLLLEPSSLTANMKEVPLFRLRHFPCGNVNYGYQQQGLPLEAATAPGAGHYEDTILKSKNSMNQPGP

[6] = target: Ribosomal protein S6 kinase beta-1 (Homo sapiens, UniProt P23443); test: Selectivity interaction (Kinase panel (literature)) EUB0001199aCl RPS6KB1; settings: at 1 µM
Sequence of Ribosomal protein S6 kinase beta-1 (P23443 whole entry, looked up): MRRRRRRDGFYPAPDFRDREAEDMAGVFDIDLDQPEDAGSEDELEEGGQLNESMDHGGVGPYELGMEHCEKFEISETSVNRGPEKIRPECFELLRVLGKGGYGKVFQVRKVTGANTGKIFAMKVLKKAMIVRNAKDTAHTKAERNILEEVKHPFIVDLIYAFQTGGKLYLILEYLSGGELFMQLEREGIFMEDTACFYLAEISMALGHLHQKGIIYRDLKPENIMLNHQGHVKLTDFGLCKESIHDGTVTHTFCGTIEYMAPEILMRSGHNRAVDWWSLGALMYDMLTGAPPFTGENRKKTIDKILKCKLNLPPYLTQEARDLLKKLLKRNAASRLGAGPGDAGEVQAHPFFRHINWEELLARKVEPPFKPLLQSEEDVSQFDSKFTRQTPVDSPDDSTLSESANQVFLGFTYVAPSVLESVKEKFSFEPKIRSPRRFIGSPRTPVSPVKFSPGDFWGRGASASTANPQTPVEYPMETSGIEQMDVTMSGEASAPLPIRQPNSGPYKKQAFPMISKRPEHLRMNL

[7] = target: Cyclin-dependent kinase 18 (Homo sapiens) (UniProt Q07002); test: Selectivity interaction (KinomeScan (DiscoverX)) EUB0000607a CDK18; settings: at 10 µM
Sequence of Cyclin-dependent kinase 18 (Homo sapiens) (Q07002 whole entry): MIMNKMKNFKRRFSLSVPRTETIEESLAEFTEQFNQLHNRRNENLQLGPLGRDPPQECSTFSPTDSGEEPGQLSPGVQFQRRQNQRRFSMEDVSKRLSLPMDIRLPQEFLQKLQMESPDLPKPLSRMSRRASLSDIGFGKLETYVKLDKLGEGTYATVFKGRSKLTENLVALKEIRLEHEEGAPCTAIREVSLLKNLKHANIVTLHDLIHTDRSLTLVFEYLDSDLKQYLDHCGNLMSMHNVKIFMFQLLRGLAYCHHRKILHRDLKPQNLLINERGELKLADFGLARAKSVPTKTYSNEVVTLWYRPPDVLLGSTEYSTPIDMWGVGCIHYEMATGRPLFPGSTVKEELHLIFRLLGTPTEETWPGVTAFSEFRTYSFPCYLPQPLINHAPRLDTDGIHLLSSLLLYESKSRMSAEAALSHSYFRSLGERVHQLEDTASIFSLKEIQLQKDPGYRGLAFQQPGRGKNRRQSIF

[8] = target: T3, Aurora kinase C (Homo sapiens) (UniProt Q9UQB9); test: Selectivity interaction (KinomeScan (DiscoverX)) EUB0000607a AURKC; settings: at 10 µM
T3 sequence (whole entry): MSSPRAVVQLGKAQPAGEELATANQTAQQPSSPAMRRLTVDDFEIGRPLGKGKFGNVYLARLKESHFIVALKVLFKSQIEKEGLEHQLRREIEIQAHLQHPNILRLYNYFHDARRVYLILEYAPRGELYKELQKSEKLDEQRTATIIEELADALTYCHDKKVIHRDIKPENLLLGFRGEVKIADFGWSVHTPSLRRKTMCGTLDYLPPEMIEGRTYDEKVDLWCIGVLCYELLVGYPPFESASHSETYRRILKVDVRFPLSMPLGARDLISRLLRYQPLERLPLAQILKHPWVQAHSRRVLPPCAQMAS

[9] = target: Ribosomal protein S6 kinase alpha-5 (Homo sapiens) (UniProt O75582); test: Selectivity interaction (KinomeScan (DiscoverX)) EUB0000618a RPS6KA5; settings: at 10 µM
Sequence of Ribosomal protein S6 kinase alpha-5 (Homo sapiens) (O75582 whole entry, looked up): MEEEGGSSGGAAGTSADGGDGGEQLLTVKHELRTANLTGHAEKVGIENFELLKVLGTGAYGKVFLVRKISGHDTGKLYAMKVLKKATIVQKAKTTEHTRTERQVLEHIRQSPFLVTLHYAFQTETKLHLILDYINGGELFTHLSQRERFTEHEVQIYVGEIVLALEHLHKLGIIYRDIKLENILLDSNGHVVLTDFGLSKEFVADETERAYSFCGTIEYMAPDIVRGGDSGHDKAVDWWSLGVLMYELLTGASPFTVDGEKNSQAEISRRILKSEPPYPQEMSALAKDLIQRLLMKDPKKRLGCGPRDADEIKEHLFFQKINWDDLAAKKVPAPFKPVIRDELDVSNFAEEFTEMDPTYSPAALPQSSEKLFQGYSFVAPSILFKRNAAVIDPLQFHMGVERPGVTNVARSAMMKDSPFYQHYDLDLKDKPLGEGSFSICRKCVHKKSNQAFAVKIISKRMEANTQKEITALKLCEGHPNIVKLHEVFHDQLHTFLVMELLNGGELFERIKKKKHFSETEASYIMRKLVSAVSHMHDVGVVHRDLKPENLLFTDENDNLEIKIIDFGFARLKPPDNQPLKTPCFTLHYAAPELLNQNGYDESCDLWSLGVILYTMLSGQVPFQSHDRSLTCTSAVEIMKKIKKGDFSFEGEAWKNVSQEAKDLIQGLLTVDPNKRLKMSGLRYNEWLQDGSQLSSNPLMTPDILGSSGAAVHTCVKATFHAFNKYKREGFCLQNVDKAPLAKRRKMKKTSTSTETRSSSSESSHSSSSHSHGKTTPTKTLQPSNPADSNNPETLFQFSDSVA

In the case of `C=CC(=O)Nc1ccc(C(=O)Nc2[nH]nc3c2CN(C(=O)N[C@H](CN(C)C)c2ccccc2)C3(C)C)cc1`, the % of engagement [1] was -4.3%.
`Cc1cc(F)c(C(=O)Nc2cccc(-c3nncn3C(C)C)n2)cc1-n1cnc(C2CC2)c1` gave a % of control [2] of 100%.
Compound `Nc1cnc(N2CCc3cc(S(=O)(=O)Nc4c(F)cc(Cl)cc4F)cc(N4CCCC4=O)c32)nc1` [TP-020n] has a % of control [3] of 83%.
For `Cc1ccc(-c2ccc3c(ccc4sc5c(c43)NC[C@@H](C)NC5=O)n2)cn1`, the % of inhibition [4] was -6%.
Compound `CCC(=O)N1CC[C@H](Nc2ncnc3c2CN(c2cnc(OC)c(C(F)(F)F)c2)CC3)C1` [LENIOLISIB] has a pIC50 [5] of under 5.00.
In the case of `CN1Cc2nccc(-c3cn(C)nc3-c3ccc(F)cc3)c2C1=O`, the % of inhibition [6] was -3%.
For `CNC(=O)Nc1ccc(-c2nc(N3CC4CCC(C3)O4)c3cnn(C4CCC5(CC4)OCCO5)c3n2)cc1`, the % of control [7] was 92% and the % of control [8] was 86%.
Compound `O[C@H]1CC[C@H](Nc2ncc3nc(Nc4c(F)cc(F)cc4F)n([C@H]4CCOC4)c3n2)CC1` has a % of control [9] of 68%.
